Measured values published in patent EP1285920A1, “C10 Ester sustituted taxanes as antitumor agents” (Florida State University Research Foundation, Inc., priority 2001, dated 2003).

Test system: HCT116
Assay: In Vitro cytotoxicity measured by the cell colony formation assay
Type: cell-based, human
Details: Homo sapiens, HCT-116; read-out: IN VITRO ID 50 HCT116
Method in brief: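 Four hundred cells per dish in McCoy's 5a medium with 10% FBS were allowed to attach for 5 h at 37 °C. They were then exposed to compound for 72 h at 37 °C, added as a 10× stock made fresh in medium. After HBSS rinsing and refeeding, colonies were counted after 7 days.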

In the case of `CC(=O)O[C@@]12CO[C@@H]1C[C@H](O)[C@@]1(C)C(=O)[C@H](OC(=O)c3cccs3)C3=C(C)[C@@H](OC(=O)[C@H](O)[C@@H](NC(=O)OC(C)(C)C)c4ccsc4)C[C@@](O)([C@@H](OC(=O)c4ccccc4)[C@H]21)C3(C)C` [Compound 1939], the IC50 is reported as < 1 nM.

In the case of `CC(=O)O[C@@]12CO[C@@H]1C[C@H](O)[C@@]1(C)C(=O)[C@H](OC(=O)C3CC3)C3=C(C)[C@@H](OC(=O)[C@H](O)[C@@H](NC(=O)OC(C)C)c4cccs4)C[C@@](O)([C@@H](OC(=O)c4ccccc4)[C@H]21)C3(C)C` [Compound 3071], the IC50 is reported as < 1 nM.

In the case of `CCCC(=O)O[C@H]1C(=O)[C@@]2(C)[C@H]([C@H](OC(=O)c3ccccc3)[C@]3(O)C[C@H](OC(=O)[C@H](O)[C@@H](NC(=O)OC(C)(C)C)C4CC4)C(C)=C1C3(C)C)[C@]1(OC(C)=O)CO[C@@H]1C[C@@H]2O` [Compound 1020], the IC50 is reported as < 1 nM.

In the case of `CCC(=O)O[C@H]1C(=O)[C@@]2(C)[C@H]([C@H](OC(=O)c3ccccc3)[C@]3(O)C[C@H](OC(=O)[C@H](O)[C@@H](NC(=O)OCC(C)C)c4cccs4)C(C)=C1C3(C)C)[C@]1(OC(C)=O)CO[C@@H]1C[C@@H]2O` [Compound 3163], the IC50 is reported as < 1 nM.

With `CCC(=O)O[C@H]1C(=O)[C@@]2(C)[C@H]([C@H](OC(=O)c3ccccc3)[C@]3(O)C[C@H](OC(=O)[C@H](O)[C@@H](NC(=O)OCC(C)C)C4CC4)C(C)=C1C3(C)C)[C@]1(OC(C)=O)CO[C@@H]1C[C@@H]2O` [Compound 4799] the IC50 was < 1 nM.

For `CC=CC(=O)NC(c1ccsc1)C(O)C(=O)OC1CC2(O)C(OC(=O)c3ccccc3)C3C4(OC(C)=O)COC4CC(O)C3(C)C(=O)C(OC(=O)C3CC3)C(=C1C)C2(C)C` (stereo not drawn) [Compound 5040], the IC50 was < 1 nM.
